Where a name gives a salt, the structure may show the parent alone.
Each compound was assayed against T1, GPR84 (Homo sapiens, UniProt Q9NQS5) (assay: PRESTO-Tango β-arrestin2 recruitment assay, GPR84 antagonistic activity). Details: antagonist activity in the Presto-TANGO assay; inhibition of the response from the agonist ZQ-16 (100 nM); HTLA cells.
T1 construct: expressed in transfected cells; host or cells: HTLA cells (HEK293 line stably expressing a tTA-dependent luciferase reporter and a β-arrestin2-TEV fusion gene), transiently transfected with PEI
Format: cell-based
Experimental: PRESTO-Tango β-arrestin recruitment assay (W.K. Kroeze et al., 2015). HTLA cells (a HEK293 cell line stably expressing a tTA-dependent luciferase reporter and a β-arrestin2-TEV fusion gene) were maintained in Dulbecco's Modified Eagle's Medium (DMEM) supplemented with 10% Fetal Bovine Serum (dFBS), 100 U/mL penicillin and 100 μg/mL streptomycin, 2 μg/mL puromycin and 100 μg/mL hygromycin B in a humidified atmosphere at 37° C. in 5% CO2. For transfection, cells were plated at 9×10^6 to 10×10^6 cells per 15-cm cell-culture dish (day 1). The following day (day 2), cells were transfected by adding 5 μg DNA and 15 μg polyethylenimine (PEI) diluted in 1 mL Opti-MEM (Reduced Serum Medium supplied by ThermoFisher). On day 3, transfected cells were transferred at 25000 cells per well in 40 μl of medium into poly-l-lysine-coated and rinsed 384-well white, clear-bottomed cell-culture plates (Greiner Bio-One). On day 4, dilutions of the ligands to be tested were prepared in 1% dFBS DMEM and 10 μL were added to each well. On day 5, 20 μl per well of Bright-Glo solution (Promega) diluted 10-fold in assay buffer (Hanks' Balanced Salt Solution [HBSS], 20 mM HEPES, 1 mM CaCl2, 1 mM MgCl2, pH adjusted to 7.4 by 5 M NaOH) was added to each well. After incubation for 20 min at room temperature, luminescence was counted in an Enspire luminescence counter at 384 nm. Results in the form of relative luminescence units (RLU) were exported into Excel spreadsheets, and GraphPad Prism was used for analysis of data. To measure constitutive activity, no ligand was added on day 4.
The GPR84 antagonistic activity of the compounds was determined using the PRESTO-Tango β-arrestin2 recruitment assay (Assay I, see assays above), from which the concentration of each compound required for 50% inhibition (IC50) of the response from the agonist ZQ-16 (100 nM) was determined. The antagonistic activity for each compound is given in Table 1 as the pIC50, which is the negative log of the IC50 value when converted to molar.

T1 sequence (Q9NQS5 whole entry, the tested form may be a part): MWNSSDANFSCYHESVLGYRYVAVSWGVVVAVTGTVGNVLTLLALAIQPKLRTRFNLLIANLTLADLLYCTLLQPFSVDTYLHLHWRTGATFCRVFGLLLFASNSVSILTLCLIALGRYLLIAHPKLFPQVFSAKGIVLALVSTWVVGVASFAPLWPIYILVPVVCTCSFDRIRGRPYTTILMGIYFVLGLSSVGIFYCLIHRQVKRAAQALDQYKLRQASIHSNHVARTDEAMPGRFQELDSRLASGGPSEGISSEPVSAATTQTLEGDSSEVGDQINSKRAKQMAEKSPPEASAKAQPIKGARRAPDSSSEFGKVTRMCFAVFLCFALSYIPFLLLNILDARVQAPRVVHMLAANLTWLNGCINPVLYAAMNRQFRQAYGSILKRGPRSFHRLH

SMILES | IC50
CCOC(=O)COc1ccc(CCc2nc(OCC3COCCO3)cc(O)c2C)cc1 (stereo not drawn) [Example 28, Ethyl 2-(4-(2-(6-((1,4-dioxan-2-yl)methoxy)-4-hydroxy-3-methylpyridin-2-yl)ethyl)phenoxy)acetate] | 11.2 nM
CCOc1ccc(CCc2nc(OCC3COCCO3)cc(O)c2C)cc1 (stereo not drawn) [Example 23, 6-((1,4-Dioxan-2-yl)methoxy)-2-(4-ethoxyphenethyl)-3-methylpyridin-4-ol] | 3.31 nM
CCOc1ccc(C2CC2c2nc(OCC3COCCO3)cc(O)c2CC)cc1 (stereo not drawn) [Example 51, 6-((1,4-Dioxan-2-yl)methoxy)-2-(2-(4-ethoxyphenyl)cyclopropyl)-3-ethylpyridin-4-ol] | 87.1 nM
CCCc1ccc(CCc2nc(OCC3CCCCO3)cc(O)c2CCC(=O)OCC)cc1 (stereo not drawn) [Example 13, Ethyl 3-(4-hydroxy-2-(4-propylphenethyl)-6-((tetrahydro-2H-pyran-2-yl)methoxy)pyridin-3-yl)propanoate] | 13.2 nM
CCc1c(O)cc(OCC2COCCO2)nc1CCc1ccc(OCC(N)=O)cc1 (stereo not drawn) [Example 37, 2-(4-(2-(6-((1,4-Dioxan-2-yl)methoxy)-3-ethyl-4-hydroxypyridin-2-yl)ethyl)phenoxy)acetamide] | 2.88 nM
CCCc1ccc(CCc2nc(OCC3CCCCO3)cc(O)c2/C=C/C(=O)OCC)cc1 (stereo not drawn) [Example 12, Ethyl (E)-3-(4-hydroxy-2-(4-propylphenethyl)-6-((tetrahydro-2H-pyran-2-yl)methoxy)pyridin-3-yl)acrylate] | 21.9 nM
CCOc1ccc(CCc2nc(OCC3CCCCO3)cc(O)c2C#N)cc1 (stereo not drawn) [Example 4, 2-(4-Ethoxyphenethyl)-4-hydroxy-6-((tetrahydro-2H-pyran-2-yl)methoxy)nicotinonitrile] | 145 nM
CCCc1ccc(CCc2nc(OCC3CCCCO3)cc(O)c2-c2ccc(C(=O)OC)cc2)cc1 (stereo not drawn) [Example 20, Methyl 4-(4-hydroxy-2-(4-propylphenethyl)-6-((tetrahydro-2H-pyran-2-yl)methoxy)pyridin-3-yl)benzoate] | 145 nM
CC(=O)NCCOc1ccc(CCc2nc(OCC3COCCO3)cc(O)c2C)cc1 (stereo not drawn) [Example 31, N-(2-(4-(2-(6-((1,4-dioxan-2-yl)methoxy)-4-hydroxy-3-methylpyridin-2-yl)ethyl)phenoxy)ethyl)acetamide] | 17.8 nM
CCOc1ccc(-c2ccc3c(O)cc(OCC4CCCCO4)nc3c2)cc1 (stereo not drawn) [Example 5, 7-(4-Ethoxyphenyl)-2-((tetrahydro-2H-pyran-2-yl)methoxy)quinolin-4-ol] | 724 nM
CCc1c(O)cc(OCC2COCCO2)nc1CCc1ccc(OCCCCC(=O)O)cc1 (stereo not drawn) [Example 47, 5-(4-(2-(6-((1,4-Dioxan-2-yl)methoxy)-3-ethyl-4-hydroxypyridin-2-yl)ethyl)phenoxy)pentanoic acid] | 4.07 nM
CCCc1ccc(CCc2nc(OCC3CCCCO3)cc(O)c2CCc2ccccc2)cc1 (stereo not drawn) [Example 11, 3-Phenethyl-2-(4-propylphenethyl)-6-((tetrahydro-2H-pyran-2-yl)methoxy)pyridin-4-ol] | 178 nM
CCCc1ccc(CCc2nc(OCC3CCCCO3)cc(O)c2C(C)C)cc1 (stereo not drawn) [Example 8, 3-Isopropyl-2-(4-propylphenethyl)-6-((tetrahydro-2H-pyran-2-yl)methoxy)pyridin-4-ol] | 81.3 nM
CCCc1ccc(CCc2nc(OCC3CCCCO3)cc(O)c2-c2ccc(CC)cc2)cc1 (stereo not drawn) [Example 16, 3-(4-Ethylphenyl)-2-(4-propylphenethyl)-6-((tetrahydro-2H-pyran-2-yl)methoxy)pyridin-4-ol] | 70.8 nM
CCCc1ccc(CCc2nc(OCC3CCCCO3)cc(O)c2-c2ccc(C(=O)O)cc2)cc1 (stereo not drawn) [Example 21, 4-(4-Hydroxy-2-(4-propylphenethyl)-6-((tetrahydro-2H-pyran-2-yl)methoxy)pyridin-3-yl)benzoic acid] | 141 nM
Cc1c(O)cc(OCC2COCCO2)nc1CCc1ccc(OCC(=O)O)cc1 (stereo not drawn) [Example 30, 2-(4-(2-(6-((1,4-Dioxan-2-yl)methoxy)-4-hydroxy-3-methylpyridin-2-yl)ethyl)phenoxy)acetic acid] | 1290 nM
CCc1c(O)cc(OCC2COCCO2)nc1CCc1ccc(OCc2nc(C)no2)cc1 (stereo not drawn) [Example 40, 6-((1,4-Dioxan-2-yl)methoxy)-3-ethyl-2-(4-((3-methyl-1,2,4-oxadiazol-5-yl)methoxy)phenethyl)pyridin-4-ol] | 2.95 nM

Stronger by IC50, values ahead:

IC50 | SMILES
1.7 nM | CCCc1ccc(CCc2nc(OCC3CCCCO3)cc(O)c2CCCO)cc1 (stereo not drawn) [Example 15, 3-(3-Hydroxypropyl)-2-(4-propylphenethyl)-6-((tetrahydro-2H-pyran-2-yl)methoxy)pyridin-4-ol]
0.282 nM | Cc1c(O)cc(OCC2COCCO2)nc1CCc1ccc(OCCNC(=O)OC(C)(C)C)cc1 (stereo not drawn) [Example 27, Tert-butyl (2-(4-(2-(6-((1,4-dioxan-2-yl)methoxy)-4-hydroxy-3-methylpyridin-2-yl)ethyl)phenoxy)ethyl)carbamate]
0.302 nM | CCc1c(O)cc(OCC2COCCO2)nc1CCc1ccc(OCCCNC(=O)OC(C)(C)C)cc1 (stereo not drawn) [Example 33, tert-Butyl (3-(4-(2-(6-((1,4-dioxan-2-yl)methoxy)-3-ethyl-4-hydroxypyridin-2-yl)ethyl)phenoxy)propyl)carbamate]
0.501 nM | CCOc1ccc(CCc2nc(OCC3COCCO3)cc(O)c2CC)cn1 (stereo not drawn) [Example 49, 6-((1,4-Dioxan-2-yl)methoxy)-2-(2-(6-ethoxypyridin-3-yl)ethyl)-3-ethylpyridin-4-ol]
0.759 nM | CCc1c(O)cc(OCC2COCCO2)nc1CCc1ccc(OCc2nc(C(=O)OC)co2)cc1 (stereo not drawn) [Example 41, Methyl 2-((4-(2-(6-((1,4-dioxan-2-yl)methoxy)-3-ethyl-4-hydroxypyridin-2-yl)ethyl)phenoxy)methyl)oxazole-4-carboxylate]
0.832 nM | CCc1c(O)cc(OCC2COCCO2)nc1CCc1ccc(OCCCN)cc1 (stereo not drawn) [Example 46, 6-((1,4-Dioxan-2-yl)methoxy)-2-(4-(3-aminopropoxy)phenethyl)-3-ethylpyridin-4-ol hydrochloride]
0.776 nM | CCCc1ccc(CCc2nc(OCC3COCCO3)cc(O)c2CC)cc1 (stereo not drawn) [Example 25, 6-((1,4-Dioxan-2-yl)methoxy)-3-ethyl-2-(4-propylphenethyl)pyridin-4-ol]
0.331 nM | CCc1c(O)cc(OCC2COCCO2)nc1CCc1ccc(OCCOCCNC(=O)OC(C)(C)C)cc1 (stereo not drawn) [Example 34, tert-Butyl (2-(2-(4-(2-(6-((1,4-dioxan-2-yl)methoxy)-3-ethyl-4-hydroxypyridin-2-yl)ethyl)phenoxy)ethoxy)ethyl)carbamate]
1.29 nM | CCOc1ncc(CCc2nc(OCC3COCCO3)cc(O)c2CC)cc1F (stereo not drawn) [Example 50, 6-((1,4-Dioxan-2-yl)methoxy)-2-(2-(6-ethoxy-5-fluoropyridin-3-yl)ethyl)-3-ethylpyridin-4-ol]
1.07 nM | CCOc1ccc(CCc2nc(OC[C@@H]3COCCO3)cc(O)c2C)cc1 [Example 24, (S)-6-((1,4-dioxan-2-yl)methoxy)-2-(4-ethoxyphenethyl)-3-methylpyridin-4-ol]
0.209 nM | [2H]C([2H])([2H])C([2H])([2H])Oc1ccc(C([2H])([2H])C([2H])([2H])c2nc(OCC3COCCO3)cc(O)c2CC)cc1 (stereo not drawn) [Example 44, 6-((1,4-Dioxan-2-yl)methoxy)-2-(2-(4-(ethoxy-d5)phenyl)ethyl-1,1,2,2-d4)-3-ethylpyridin-4-ol]
0.209 nM | CCc1c(O)cc(OCC2COCCO2)nc1CCc1ccc(OCCNC(=O)OC(C)(C)C)cc1 (stereo not drawn) [Example 32, tert-Butyl (2-(4-(2-(6-((1,4-dioxan-2-yl)methoxy)-3-ethyl-4-hydroxypyridin-2-yl)ethyl)phenoxy)ethyl)carbamate]
2.34 nM | CCc1c(O)cc(OCC2COCCO2)nc1CCc1ccc(OCCN)cc1 (stereo not drawn) [Example 45, 6-((1,4-Dioxan-2-yl)methoxy)-2-(4-(2-aminoethoxy)phenethyl)-3-ethylpyridin-4-ol hydrochloride]
1.12 nM | CCCc1ccc(CCc2nc(OCC3CCCCO3)cc(O)c2CCC(=O)O)cc1 (stereo not drawn) [Example 14, Sodium 3-(4-hydroxy-2-(4-propylphenethyl)-6-((tetrahydro-2H-pyran-2-yl)methoxy)pyridin-3-yl)propanoate]
2.14 nM | CCCc1ccc(CCc2nc(OCC3CCCCO3)cc(O)c2CC)cc1 (stereo not drawn) [Example 6, 3-Ethyl-2-(4-propylphenethyl)-6-((tetrahydro-2H-pyran-2-yl)methoxy)pyridin-4-ol]
0.389 nM | CCOc1ccc(CCc2nc(OCC3COCCO3)cc(O)c2CC)cc1 (stereo not drawn) [Example 26, 6-((1,4-Dioxan-2-yl)methoxy)-2-(4-ethoxyphenethyl)-3-ethylpyridin-4-ol]
